The values that follow come from patent US20180042918A1, “RESPIRATORY INFECTION TREATING AGENT” (KYORIN PHARMACEUTICAL CO., LTD., priority 2015, published 2018).

A word on the pIC50: it is the negative decadic logarithm of the IC50, by convention in mol/L. One may read the AUC as concentration integrated over time. In general, IC50 refers to the concentration that gives 50% inhibition.

pIC50: −log10 of the molar value. Converted amounts (≈) assume the structure as drawn. Where two headings read alike, the source gives them in different places.

In series [1] the target is Topoisomerase IV (S. pneumoniae IID553) (Streptococcus pneumoniae serotype 4, UniProt P72525+Q59961). Nature of the series: Enzyme inhibitory activity, decatenation of kinetoplast DNA.
The subject of the next series is S. pneumoniae SF9863. As to the kind of experiment: microbe, parasite or virus in culture. Type of series: cell-based. Particulars: Streptococcus pneumoniae.
Series [2] can be described thus: Concentration in tissue (human, oral administration): epithelial lining fluid, alveolar macrophages, plasma. Type of series: in vivo. Particulars: male, oral single dose 75 mg; for Kp: over 1 to 24 hours. As for the experimental part:
Concentration of compound D in lung tissue (epithelial lining fluid and alveolar macrophages) and plasma was measured to investigate intrapulmonary distribution of compound D after oral single administration of this drug, with reference to a method in Document (Antimicrobial Agents and Chemotherapy, February 2010, pp. 866-870).
The measurement was as follows. Healthy adult male volunteers were given oral single dose of compound D (75 mg). The bronchoalveolar lavage fluid and blood samples were collected from the subjects at 1, 2, 4, 6, and 24 hours after the administration. The collection of the fluid and blood samples was carried out at each time point for six subjects. The bronchoalveolar lavage fluid was centrifuged to separate from epithelial lining fluid and alveolar macrophages for measurement of the drug concentration. The concentrations of compound D in lung tissue and plasma were measured by LC/MS/MS.

Series [3] is described as follows: Clinical efficacy (cure rate) in patients with community-acquired pneumonia. In kind it is in vivo, human. Particulars: oral 75 mg once daily for 7 days, seven days after treatment completion. Here is the method:
We investigated efficacy of compound D for the patients with community-acquired pneumonia. 50 patients with community-acquired pneumonia were orally administered 75 mg of compound D once daily for 7 days. The clinical efficacy (cure rate) was evaluated at seven days after treatment completion. The clinical trial was performed in accordance with a part of evaluation on patients with community-acquired pneumonia (pp. 34 to 38) in “general guidelines for the evaluation of new antimicrobial agents for the treatment of respiratory tract infections (second version).”

The subject of the next series is S. pneumoniae NF9884. Nature of the series: microbe, parasite or virus in culture. Type of series: cell-based. Particulars: Streptococcus pneumoniae.
Series [4] concerns the target QUINOLONE RESISTANT Topoisomerase IV (S. aureus) (Staphylococcus aureus, UniProt P0C1U9). Nature of the series: Enzyme inhibitory activity, decatenation of kinetoplast DNA. In kind it is biochemical. Here is the method: (§1) Agents Chemother. 45: 3544-3547 (2001). […] The measurement was performed in the same manner as in Test Example 3. Similarly, the inhibitory activities of ciproxacin, levofloxacin, and garenoxacin were measured. The results were compared.

Series [5] deals with Topoisomerase IV (S. aureus) (Staphylococcus aureus, UniProt P0C1S7+P0C1U9). The description is as above. Type of series: biochemical. Here is the method: as §1
For a further series, the system named is S. pneumoniae KY-9. As to the kind of experiment: Antibacterial activity against Streptococcus pneumoniae in vitro, CLSI microdilution. In kind it is cell-based. Particulars: KY9. Here is the method:
The antibacterial activities in vitro of the compound D, garenoxacin, and levofloxacin against a strain in a mouse infected with Streptococcus pneumoniae (S. pneumonia KY-9) were measured in accordance with a CLSI microdilution method.
For orientation: Dilution methods test growth across graded concentrations, often in twofold steps.

The target in series [6] is DNA gyrase derived from S. pneumoniae IID553 (Streptococcus pneumoniae serotype 4, UniProt P0A4L9+P72524). As to the kind of experiment: Enzyme inhibitory activity, supercoiling of relaxed pBR322.
A short description of series [7]: AUC and Cmax, plasma concentration by HPLC after repeated oral doses. Type of series: in vivo. Particulars: male, human, Japanese healthy adult males, oral 75 mg once daily for seven days, day 7, plasma. Here is the method:
Six Japanese healthy adult males received oral doses of 75 mg compound D once daily for seven consecutive days. The plasma concentration of compound D was measured by the HPLC method, and the pharmacokinetic parameters were calculated.

The conditions of series [8]: 400 mg, patients with bacterial pneumonia; cited from earlier work.
For series [9] the following is noted: consecutive administration, daily dose of 400 mg; cited from earlier work.
For series [10] the following is noted: human, 2.5 to 3.5 hours after administration; cited from earlier work.
Setting [11] is: alveolar macrophages, read-out: TISSUE DISTRIBUTION RATIO, ALVEOLAR MACROPHAGES
Where [12] appears, read: epithelial lining fluid, read-out: TISSUE DISTRIBUTION RATIO, ALVEOLAR EPITHELIAL LINING FLUID.

Consider `COc1c(N2C[C@H](CNC3CC3)[C@H](F)C2)c(F)cc2c(=O)c(C(=O)O)cn(CCF)c12.Cl` [Compound D, 7-[(3S,4S)-3-{(cyclopropylamino)methyl}-4-fluoropyrrolidine-1-yl]-6-fluoro-1-(2-fluoroethyl)-8-methoxy-4-oxo-1,4-dihydroquinoline-3-carboxylic acid hydrochloride], for which the pIC50 in [1] was 5.56; in [4] (read-out: IC50 VALUE, QUINOLONE RESISTANT Topoisomerase IV) it was 5.23; in series [5] it was 5.81; in series [6], 4.90. In addition, the MIC amounted to 0.06 µg/mL against S. pneumoniae SF9863, 0.125 µg/mL against S. pneumoniae NF9884 and 0.06 µg/mL in the series with S. pneumoniae KY-9. Further, the Kp at 1 h in series [2] (setting [11]) was 31.9; in series [2] (setting [12]) it was 22.5. Further, the Kp at 2 h was 18.5 in [2] (setting [11]) and 18.4 in series [2] (setting [12]). Besides, the Kp at 4 h in series [2] (setting [11]) amounted to 21.9; in series [2] (setting [12]), 16.5. Besides, the Kp at 6 h amounted to 56.4 in series [2] (setting [11]) and 15.2 in series [2] (setting [12]). For the same molecule, the Kp at 24 h in [2] (setting [11]) turned out to be 38; in [2] (setting [12]) it was 15. The Kp in series [2] (alveolar macrophages, read-out: tissue distribution ratio in alveolar macrophages, range) was 18.5 to 56.4; in series [2] (epithelial lining fluid, read-out: tissue distribution ratio in epithelial lining fluid, range) it was 15 to 22.5. The “clinical efficacy (cure rate)” value in series [3] was 90.0%. Further, the AUC in series [7] (read-out: area under the curve (AUC)) is 20600 ng·h/mL. Besides, in series [7] (read-out: maximum drug concentration (Cmax)), the Cmax amounted to 998 ng/mL.

Regarding `C[C@H]1NCc2cc(-c3ccc4c(=O)c(C(=O)O)cn(C5CC5)c4c3OC(F)F)ccc21` [GRNX, garenoxacin], the negative logarithm of the IC50 (pIC50) was 5.29 in series [1] and 4.07 in series [6]. Moreover, the clinical efficacy rate in [8] is recorded as 94.9%. Also, the results for the MIC against S. pneumoniae SF9863, in the series with S. pneumoniae NF9884 and in the series with S. pneumoniae KY-9 were 0.25 µg/mL (≈ 0.586 µM), 0.125 µg/mL (≈ 0.293 µM) and 0.03 µg/mL (≈ 0.0704 µM), respectively. Further, the AUC in [9] is 110900 ng·h/mL. Also, the Cmax in series [9] is 11060 ng/mL. Also, the IC50 is 63.3 µM in series [4] (read-out: IC50 VALUE, QUINOLONE RESISTANT Topoisomerase IV (converted)) and 4.46 µM in [5] (S. aureus enzyme, read-out: IC50 VALUE, Topoisomerase IV (converted)). For the same molecule, the “tissue distribution ratio in the alveolar macrophages” value in [10] was 11.15±8.16. For the same molecule, the “tissue distribution ratio in the epithelial lining fluid” value in series [10] was 0.95±0.41.
